Columns and labels:
[1] = cited from earlier work
[2] = target: Aβ1-42 monomer assembly into Aβ oligomers (ADDLs) (Homo sapiens (Human), UniProt P05067); experiment: FRET assay of Aβ1-42 oligomer (ADDL) assembly inhibition; format: biochemical
Description: Fluorescence (or Förster) Resonance Energy Transfer (FRET) is a distance-dependent, non-radiative transfer of energy in which the de-excitation of one fluorophore (donor) is coupled to excitation of another fluorophore (acceptor). FRET occurs if (1) the quantum of energy emitted by a donor fluorophore corresponds to an acceptor fluorophore's excitation energy, (2) the orientations of donor and acceptor transition dipoles are nearly parallel and (3) the donor fluorescent emission spectrum overlaps the acceptor absorption spectrum.
In this assay, assembly of Aβ1-42 oligomer formation is monitored by FRET using N-terminal conjugates of fluorescein-Aβ1-42 as both the donor and acceptor fluorophore (fluorescein-fluorescein Ro˜45 Å). Aβ1-42 monomers assembling into oligomeric species results in a decrease of fluorescence as the fluorescein labeled Aβ1-42 peptides become proximal to each other and FRET efficiency increases. Inhibition of Aβ1-42 assembly is observed as the absence or attenuation of fluorescein quenching.
FRET and FP assays are performed in 384-well Corning Non-Binding Surface, black, opaque microtiter plates, and the assay buffer consists of 50 mM MOPS-Tris (pH 8.0) with 100 mM MgCl2. […] ADDL assembly is monitored on a Tecan GENios Pro plate reader, exciting at a wavelength of 485 nm and detecting emission at a wavelength of 515 nm. […]

[3] = cited from earlier work; remark: listed apart in the source

Chain of Aβ1-42 monomer assembly into Aβ oligomers (ADDLs) (P05067 672-713): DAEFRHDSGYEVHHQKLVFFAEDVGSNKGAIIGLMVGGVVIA

NCCCS(=O)(=O)O [Alzhemed, 3-amino-1-propanesulfonic acid]
cognitive decline ([1]; 20 month open-label extension of Phase II trial, some patients with mild AD): slowed cognitive decline | efficacy ([1]; blinded phase of the study): no efficacy was observed | inhibition of Aβ1-42 monomer assembly into Aβ oligomers ([2]; FIG. 2, standard FRET assay conditions of Example 1): inability

Oc1c(I)cc(Cl)c2cccnc12 [Clioquinol]
patients' cognitive ability ([3]; compared to untreated patients): stabilize | Aβ1-42 levels in plasma ([3]; patients' plasma): lower

CCOC(=O)c1c(NC(=O)C(=O)N/N=C/c2ccccc2O)sc2c1CCC(C)C2 (stereo not drawn) [Compound 4, 2-{[1-(2-Hydroxyphenyl)-meth-(E)-ylidene-hydrazinooxalyl]-amino}-6-methyl-4,5,6,7-tetrahydro-benzo[b]thiophene-3-carboxylic acid ethyl ester]
inhibition of Aβ1-42 oligomer assembly ([2]; FIG. 1, Test Compound A ranging from 0.05 to 3 mM (0.05 to 3 μM in figure legend)): dose dependent inhibition

Reference: patent publication US9006283B2, “Methods of modifying amyloid β oligomers using non-peptidic compounds” (Acumen Pharmaceuticals, Inc., priority 2007, dated 2015)
